SMILES strings stand for the structures.

For one data set, the system named is RAW 264.7 cells. As to conditions: LPS-stimulated RAW 264.7 cells, literature; cited from earlier work.
In data set [1] the target is cannabinoid type 2 receptor (CB2) (Homo sapiens, UniProt P34972). As to conditions: Raduner et al., 2006; cited from earlier work.
A further data set can be described thus: TDI-induced ear swelling. It counts as in vivo, mouse. The text has this: (§1) Several different model systems were utilized for these experiments. In one model, dorsal root ganglia were obtained from mice and the neurons cultured in vitro. The neurons were then stimulated in the presence/absence of A15 and YM8-85 and the calcium responses monitored by fluorescence microscopy. In the second model, the alkamides were applied to mouse skin in mineral oil. The reactions of these mice to heat, cold, and tactile stimulation was then compared with mice that had not received treatment with A15. In a third model, mice were sensitized to the chemical compound toluene-2,4-diisocyanate (TDI). TDI is an industrial chemical which causes hypersensitive skin lesions and itching in exposed humans and animals. The physiological response to TDI is complex involving type 2 T lymphocytes, cytokines, mast cells, and neurons. Alkamides were applied to sensitized animals and then ear swelling and bouts of scratching were monitored.
A15 and TDI induced hypersensitivity. Mice were sensitized to toluene-2,4-diisocyanate (TDI) via abdominal application. Subsequently, a hypersensitive response was induced in the ear by direct application of TDI and ear thickness measured as a sign of inflammation.

In the next data set the target is T1, TRPA1 (Mus musculus, UniProt Q8BLA8).
T1 construct: The receptors TRPA1 and TRPV1 are expressed on neurons; from tissue; host or cells: primary dorsal root ganglion neurons from mice
T1 sequence (Q8BLA8 whole entry): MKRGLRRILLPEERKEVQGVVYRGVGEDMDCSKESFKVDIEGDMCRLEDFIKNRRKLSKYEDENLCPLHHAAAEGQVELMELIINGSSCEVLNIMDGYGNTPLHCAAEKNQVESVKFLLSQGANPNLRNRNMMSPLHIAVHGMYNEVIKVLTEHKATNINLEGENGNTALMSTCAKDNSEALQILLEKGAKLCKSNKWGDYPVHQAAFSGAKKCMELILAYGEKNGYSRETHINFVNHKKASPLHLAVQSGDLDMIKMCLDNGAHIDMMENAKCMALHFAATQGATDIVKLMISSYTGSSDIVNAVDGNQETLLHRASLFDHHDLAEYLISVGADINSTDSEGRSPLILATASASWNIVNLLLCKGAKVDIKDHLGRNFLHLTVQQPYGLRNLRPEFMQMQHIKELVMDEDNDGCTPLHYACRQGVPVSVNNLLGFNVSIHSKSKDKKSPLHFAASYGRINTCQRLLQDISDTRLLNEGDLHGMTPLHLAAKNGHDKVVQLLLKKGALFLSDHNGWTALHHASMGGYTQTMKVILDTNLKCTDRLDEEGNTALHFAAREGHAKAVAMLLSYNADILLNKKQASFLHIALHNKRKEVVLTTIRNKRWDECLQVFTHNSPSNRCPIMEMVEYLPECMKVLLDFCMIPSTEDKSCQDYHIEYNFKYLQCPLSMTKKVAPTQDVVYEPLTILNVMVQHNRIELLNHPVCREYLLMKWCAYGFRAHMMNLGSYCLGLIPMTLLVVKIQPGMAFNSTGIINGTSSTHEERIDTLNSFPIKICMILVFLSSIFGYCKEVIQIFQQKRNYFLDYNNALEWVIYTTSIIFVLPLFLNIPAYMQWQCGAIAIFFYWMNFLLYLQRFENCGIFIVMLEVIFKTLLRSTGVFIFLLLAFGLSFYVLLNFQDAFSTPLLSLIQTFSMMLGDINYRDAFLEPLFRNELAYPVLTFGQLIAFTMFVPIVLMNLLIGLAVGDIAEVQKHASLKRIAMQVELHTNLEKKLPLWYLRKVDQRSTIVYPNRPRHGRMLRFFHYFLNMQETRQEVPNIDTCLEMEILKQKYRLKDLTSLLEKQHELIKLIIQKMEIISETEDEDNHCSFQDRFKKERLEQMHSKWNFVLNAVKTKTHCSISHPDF
Nature of the data set: Calcium response of DRG neurons to mustard (allyl isothiocyanate). As to conditions: cultured DRG neurons, fluorescence microscopy. The class given is cell-based.
Source text: FIG. 11. Calcium response from DRG sensory neurons to alkamide of transient receptors. Mustard a TRPA1-receptor agonist activates DRG neurons in gray (A) and capsaicin, an agonist for TRPV1-receptors in the DRG neurons in red (B). Ligand A15 inhibits both TRPA1 and TRPV1 receptors activation in orange; however, 85Y a synthetic ligand only reduces the inhibition of TRPA1 but not TRPV1 receptors in blue. Total number of neurons (n)=135-145; p≤0.05.
as §1, with “In a third model, mice were sensitized to the chemical compound toluene-2,4-diisocyanate (TDI). TDI is an industrial chemical which causes hypersensitive skin lesions and itching in exposed humans and animals. The physiological response to TDI is complex involving type 2 T lymphocytes, cytokines, mast cells, and neurons.” left out
In vitro DRG neuron responses. […] Neurons were stimulated with mustard (allyl isothiocyanate) (A) an agonist for the receptor TRPA-1 or capsaicin (B) an agonist for the receptor TRPV-1 and calcium responses were measured in individual neurons by fluorescence microscopy. […]

The test system of data set [2] is RBL-2H3 cells. Nature of the data set: LDH cytotoxicity assay. The class given is cell-based, rat. To be noted: overnight treatment. Here is the method:
FIG. 7. A15 is not cytotoxic to RBL-2H3 cells. RBL-2H3 cells were plated and incubated overnight prior to stimulation. Cells were treated overnight with the indicated concentrations of A15 10 μg/mL cycloheximide as a positive control. Supernatants were collected and analyzed for LDH release using the Pierce LDH Cytotoxicity Kit. […] Statistical analysis was performed using a one-way ANOVA with Dunnett's post-hoc test, ***p<0.001.
RBL-2H3 cells were seeded into 96-well plates and incubated overnight prior to treatment with a range of A15 concentrations or 10 μg/mL cycloheximide. Supernatants were collected after 18 hr and analyzed for lactate dehydrogenase (LDH) activity using the commercially available Pierce LDH Cytotoxicity Assay Kit according to the manufacturer's instructions (Thermo Fisher Scientific). Briefly, in a 96-well plate, 50 μL of supernatant were incubated with 50 μL of reaction mixture containing a tetrazolium salt that is reduced to formazan in the presence LDH for 30 min protected from light. 50 μL of stop solution was added, and the absorbance was read at 490 nm with absorbance at 690 nm subtracted to remove background absorbance. LDH release from vehicle treated cells was used to determine spontaneous LDH release. Additionally, lysis buffer was used to determine maximum LDH release.

Data set [3] deals with RBL-2H3 cells. Nature of the data set: TNF-α production, ELISA, 8 hrs (Example 1). The class given is cell-based, rat. To be noted: 1 μM A23187, all doses tested. Here is the method: FIGS. 6A-6B. A15 inhibits de novo production of TNF-α and PGE2 from RBL-2H3 cells. RBL-2H3 cells were plated and incubated overnight prior to stimulation. Cells were stimulated with 1 μM A23187 in combination with the indicated doses of A15. Supernatants were collected 8 hrs later and TNF-α (FIG. 6A) or PGE2 (FIG. 6B) levels were measured using ELISA kits. Data shown are the means±SEM from 3 independent experiments. Statistical analysis was performed using a one-way ANOVA with Dunnett's post-hoc test, *p<0.05, **p<0.01, ***p<0.001.
Bone marrow cells were isolated from the femurs of 6-8 week old C57BL/6 mice and cultured in RPMI-1640 containing 10% heat-inactivated FBS, non-essential amino acids, HEPES buffer, sodium pyruvate, 100 U/mL penicillin, 100 μg/mL streptomycin, 5 ng/mL mIL-3, and 5 ng/mL mSCF for 4-6 weeks until mature, bone marrow-derived mast cells (BMMCs) were obtained, as described previously (Kuehn et al., 2010). Differentiation into >98% mast cells was confirmed through toluidine blue staining (1%, pH 1). RBL-2H3, RAW 264.7, and Jurkat cells were obtained from the American Type Culture Collection (Manassas, Va.). […] Optical density was determined using a Synergy HT microplate reader (BioTek Instruments, Inc, Winooski, Vt.). […]

Data set [4] is described as follows: TDI-induced scratching bouts (itch). It counts as in vivo, mouse.
Source text: as §1
The effects of A15 on TDI-induced itch. The itch response was also monitored in mice sensitized and treated with TDI. Treated mice were video recorded and the number of scratching bouts quantified by an observer.

cannabinoid type 2 receptor (CB2), sequence (P34972 whole entry, species assumed): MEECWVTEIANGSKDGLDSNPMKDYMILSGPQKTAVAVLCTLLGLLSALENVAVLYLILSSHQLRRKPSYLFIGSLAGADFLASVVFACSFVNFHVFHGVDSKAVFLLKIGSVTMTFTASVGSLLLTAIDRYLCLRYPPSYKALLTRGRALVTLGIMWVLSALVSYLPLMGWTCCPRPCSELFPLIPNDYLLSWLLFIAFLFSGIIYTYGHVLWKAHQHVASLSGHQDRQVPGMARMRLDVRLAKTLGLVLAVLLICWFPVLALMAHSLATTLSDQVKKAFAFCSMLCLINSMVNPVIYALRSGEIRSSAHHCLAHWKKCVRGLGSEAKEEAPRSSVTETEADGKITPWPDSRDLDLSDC

`CCCCCCC/C=C/C=C/C(=O)NCC(C)C` [A15, (2E,4E)-N-Isobutyldodeca-2,4-dienamide]: in the data set with RAW 264.7 cells, the TNF-α production result is recorded as “best inhibitors”. Also, the “binding to CB2” value in data set [1] was “shown to bind”. Moreover, the “TDI ear swelling (ear thickness)” value in the data set “TDI-induced ear swelling” (0.1%, first experiment (FIG. 13A)) is given as “significant inhibitory effect”; in “TDI-induced ear swelling” (0.1%, repeated experiment (FIG. 13B)) it was “neither A15 nor YM8-85 at 0.1% produced significant inhibition”; in the data set “TDI-induced ear swelling” (1%, first experiment (FIG. 13A)), “significant responses were not seen”. The “DRG neuron calcium response to mustard (TRPA1 agonist)” value on TRPA1 is on record as “inhibit”. In addition, the “cytotoxic activity (LDH release)” value in the data set on RBL-2H3 cells [2] is recorded as “no significant cytotoxic activity”. Besides, the “production of TNF-α” value with RBL-2H3 cells [3] was “significant, dose dependent inhibition”. Also, the “scratching bouts in TDI treated mice” value in data set [4] (higher dose 1.0%) and in data set [4] (lower dose 0.1%) was “strong significant inhibition of scratching” throughout.

The values are drawn from patent US20200290950A1, “ALKAMIDE COMPOUNDS AND USES THEREOF” (NORTH CAROLINA STATE UNIVERSITY, priority 2017, published 2020).
